Data on 6 compounds can be found in US20220402862A1 (Intellia Therapeutics, Inc., priority 2019, published 2022).

Data set [1] concerns Transthyretin (TTR). The data set can be described thus: Serum TTR ELISA in mice after LNP dosing. Format: in vivo, CD-1 female mice. Conditions: guide G502, i.v. 0.1 mg/kg; for Serum TTR % TSS: mouse serum TTR relative to TSS control; for Serum TTR: mouse serum. The gist of the method:
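Female CD-1 mice, 6–10 weeks, given LNPs by tail-vein injection (~10 mL/kg), 0.1 mg/kg unless noted; serum taken at day 6 or 7 by cardiac puncture. Total mouse TTR by ELISA on sera diluted 10,000-fold (0.1 mg/kg) or 10,000- and 2,500-fold (0.3 mg/kg).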
For orientation: In an ELISA, binding on a coated surface is turned into a signal by an enzyme label.

Data set [2] in a line: RNA encapsulation efficiency of LNPs (Ribogreen fluorescence assay). The data set is classed as physicochemical. Conditions: LNP, sg:mRNA 1:2, N/P about 6, 50/9/38/3, TTR sgRNA (SEQ ID NO: 4); Table 6, Experiments 106-107. The gist of the method:
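LNPs were diluted in 1× TE with 0.2% Triton X-100 (total RNA) or without it (free RNA), stained with RiboGreen for ~10 min at room temperature in the dark, and read at Ex 488/Em 525 nm against standard curves of the starting RNA. Encapsulation efficiency = (Total − Free)/Total.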

Data set [3] can be described thus: pKa measurement of unformulated amine lipid (fluorescence, method of Jayaraman et al.). Format: physicochemical. Conditions: 100 μM in 0.1 M phosphate buffer, pH 2.0-12.0. How it is done: The pKa of each amine lipid was determined according to the method in Jayaraman, et al. (Angewandte Chemie, 2012) with the following adaptations. […] Lipid was diluted to 100 μM in 0.1 M phosphate buffer (Boston Bioproducts) where the pH ranged from 2.0-12.0. Fluorescence intensity was measured using excitation and emission wavelengths of 321 nm and 448 nm.

Data set [4] relates to mouse TTR gene. The data set can be described thus: In vivo editing in mouse liver, sgRNA targeting TTR (G282 or G502), % indel by NGS. Also noted: species or system CD-1 female mice. Particulars: guide G502, i.v. 0.1 mg/kg, sgRNA:Cas9 mRNA 1:2 w/w, experiments 106, 107. How it is done:
CD-1 female mice ranging from 6-10 weeks of age were used in each study. Animals were weighed and grouped according to body weight for preparing dosing solutions based on group average weight. LNPs were dosed via the lateral tail vein in a volume of 0.2 mL per animal (approximately 10 mL per kilogram body weight). The animals were periodically observed for adverse effects for at least 24 hours post dose. For studies measuring in vivo editing in liver, CD-1 female mice were dosed at 0.1 mg/kg unless otherwise noted. Animals were euthanized at 6 or 7 days by ex sanguination via cardiac puncture under isoflurane anesthesia. Liver tissue was collected from each animal for DNA extraction and analysis. Blood was collected into serum separator tubes or into tubes containing buffered sodium citrate for plasma as described herein. Cohorts of mice were measured for editing by Next-Generation Sequencing (NGS).
In brief, to quantitatively determine the efficiency of editing at the target location in the genome, genomic DNA was isolated and deep sequencing was utilized to identify the presence of insertions and deletions introduced by gene editing.
PCR primers were designed around the target site (e.g., within B2M), and the genomic area of interest was amplified. Additional PCR was performed according to the manufacturer's protocols (Illumina) to add the necessary chemistry for sequencing. The amplicons were sequenced on an Illumina MiSeq instrument. The reads were aligned to the mouse or rat reference genome (e.g., GRCm38) after eliminating those having low quality scores. The resulting files containing the reads were mapped to the reference genome (BAM files), where reads that overlapped the target region of interest were selected and the number of wild type reads versus the number of reads which contain an insertion, substitution, or deletion was calculated.
The editing percentage (e.g., the “indel efficiency” or “percent indels”) was defined as the total number of sequence reads with insertions or deletions over the total number of sequence reads, including wild type.
We assessed in vivo editing efficiency for materials delivered with formulations including various amine lipid compounds. Editing was measured using either G282 (SEQ ID No: 1) which targets the mouse TTR gene or G650 (SEQ ID No. 2) which targets the mouse B2M gene. Lipids described above were assessed for efficacy through in vivo editing experiments. LNPs were formulated at a 1:1 or 1:1.3 w/w ratio of sgRNA to Cas9 mRNA, and at an N/P ratio of about 6. Molar concentrations of lipids in the lipid component of the LNPs are used at mol % amine lipid/DSPC/cholesterol/PEG-2k-DMG of 50/9/38/3. The final LNPs were characterized to determine the encapsulation efficiency, polydispersity index, and average particle size according to the analytical methods provided above. Analysis of average particle size, polydispersity (PDI), total RNA content and encapsulation efficiency of RNA are shown in Table 2.
To assess whether the editing was dose responsive, experiments were performed in vivo at various LNP dose levels. Cas9 mRNA of Example 120 was formulated as LNPs with an sgRNA targeting TTR (G282, SEQ ID NO: 1; or G502, SEQ ID NO: 4).
We assessed in vivo delivery by measuring editing efficiency for materials delivered with formulations that included various amine lipid compounds. Cas9 mRNA (SEQ ID NO: 6) was formulated as LNPs with an sgRNA targetting the TTR mouse gene (SEQ ID NO: 4). LNPs were formulated at a 1:2 w/w ratio of sgRNA to Cas9 mRNA, and at an N/P ratio of about 6. Molar concentrations of lipids in the lipid component of the LNPs are used at mol % amine lipid/DSPC/cholesterol/PEG-2k-DMG of 50/9/38/3. The final LNPs compositions were characterized and analyzed as described in Example 120. Analysis of average particle size, polydispersity (PDI), total RNA content and encapsulation efficiency of RNA are shown in Table 6.

Data set [5] in a line: Dynamic light scattering of LNPs: Z-average diameter, number average diameter, PDI. The data set is classed as physicochemical. Particulars: LNP, sg:mRNA 1:2, N/P about 6, 50/9/38/3; Table 6, Experiments 106-107. The gist of the method:
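LNP samples were diluted in PBS and measured by DLS to give intensity-based Z-average diameter, number average diameter and polydispersity index. PDI describes size spread around the mean, with zero meaning a uniform population.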

In the case of `CCCCC/C=C\C/C=C\CCCCCCCC(=O)OCC(COC(=O)CCC(OCCCCCCCC)OCCCCCCCC)COC(=O)NCCN1CCCCC1` (stereo not drawn) [Compound 101, 3-((4,4-bis(octyloxy)butanoyl)oxy)-2-((((2-(piperidin-1-yl)ethyl)carbamoyl)oxy)methyl)propyl (9Z,12Z)-octadeca-9,12-dienoate], in data set [1], the “Serum TTR % TSS” value amounted to 56.1% and the “Serum TTR” value is 655.8 µg/mL. In data set [2], the “% E” value came to 99%. For the same compound, in data set [3], the pKa (in general, the negative logarithm of the acid dissociation constant) worked out at 6.4. Further, the “Editing Mean % Indel” value in data set [4] is 25.9%. In data set [5], the “Number mean (nm)” value stood at 58 nm, the PDI is 0.04 and the “Z-avg (nm)” value is on record as 73 nm.

For `CCCCC/C=C\C/C=C\CCCCCCCC(=O)OCC(COC(=O)CCC(OCCCCCCCC)OCCCCCCCC)COC(=O)OCCCN1CCCCC1` (stereo not drawn) [Compound 102, 3-((4,4-bis(octyloxy)butanoyl)oxy)-2-((((3-(piperidin-1-yl)propoxy)carbonyl)oxy)methyl)propyl (9Z,12Z)-octadeca-9,12-dienoate], in data set [1], the “Serum TTR % TSS” value is listed as 62.3% and the “Serum TTR” value was found to be 728.1 µg/mL. Also, the “% E” value in data set [2] amounted to 98%. Further, the pKa in data set [3] is 5.7. For the same compound, the “Editing Mean % Indel” value in data set [4] is 19.6%. In addition, in data set [5], the “Number mean (nm)” value was determined as 57 nm, the PDI was 0.02 and the “Z-avg (nm)” value was 71 nm.

On to `CCCCC/C=C\C/C=C\CCCCCCCC(=O)OCC(COC(=O)CCC(OCCCCCCCC)OCCCCCCCC)COC(=O)NCCN1CCCCCC1` (stereo not drawn) [Compound 103, 3-(((2-(azepan-1-yl)ethyl)carbamoyl)oxy)-2-(((4,4-bis(octyloxy)butanoyl)oxy)methyl)propyl (9Z,12Z)-octadeca-9,12-dienoate], for which, in data set [1], the “Serum TTR % TSS” value worked out at 89.3% and the “Serum TTR” value turned out to be 1043.8 µg/mL. Besides, in data set [2], the “% E” value came to 99%. The pKa in data set [3] amounted to 7. For the same compound, the “Editing Mean % Indel” value in data set [4] is 4.2%. In addition, in data set [5], the “Number mean (nm)” value is recorded as 50 nm, the PDI came to 0.05 and the “Z-avg (nm)” value is 65 nm.

In the case of `CCCCCCCCCCCCCCCCCC(=O)OCC(COC(=O)CCC(OCCCCCCCC)OCCCCCCCC)COC(=O)OCCCN(CC)CC` (stereo not drawn) [Compound 114, 3-((4,4-bis(octyloxy)butanoyl)oxy)-2-((((3-(diethylamino)propoxy)carbonyl)oxy)methyl)propyl stearate], in data set [1], the “Serum TTR % TSS” value came out at 88.4% and the “Serum TTR” value was 978.01 µg/mL. For the same compound, the “% E” value in data set [2] is listed as 96%. Also, the pKa in data set [3] turned out to be 6.13. For the same compound, in data set [4], the “Editing Mean % Indel” value is recorded as 18.04%. Also, in data set [5], the “Number mean (nm)” value amounted to 72 nm, the PDI is recorded as 0.02 and the “Z-avg (nm)” value amounted to 87 nm.

Consider `CCCCCCCC/C=C\CCCCCCCC(=O)OCC(COC(=O)CCC(OCCCCCCCC)OCCCCCCCC)COC(=O)OCCCN(CC)CC` (stereo not drawn) [Compound 115, 3-((4,4-bis(octyloxy)butanoyl)oxy)-2-((((3-(diethylamino)propoxy)carbonyl)oxy)methyl)propyl oleate], for which, in data set [1], the “Serum TTR % TSS” value is reported as 73.8% and the “Serum TTR” value was found to be 816.3 µg/mL. Moreover, the “% E” value in data set [2] stood at 97%. Moreover, in data set [3], the pKa was found to be 5.96. The “Editing Mean % Indel” value in data set [4] is given as 19.68%. Moreover, in data set [5], the “Number mean (nm)” value amounted to 76 nm, the PDI is listed as 0.01 and the “Z-avg (nm)” value is on record as 93 nm.

For `CC/C=C\C/C=C\C/C=C\CCCCCCCC(=O)OCC(COC(=O)CCC(OCCCCCCCC)OCCCCCCCC)COC(=O)OCCCN(CC)CC` (stereo not drawn) [Compound 116, 3-((4,4-bis(octyloxy)butanoyl)oxy)-2-((((3-(diethylamino)propoxy)carbonyl)oxy)methyl)propyl (9Z,12Z,15Z)-octadeca-9,12,15-trienoate], in data set [1], the “Serum TTR % TSS” value amounted to 51.3% and the “Serum TTR” value came out at 567.09 µg/mL. The “% E” value in data set [2] was determined as 99%. Besides, in data set [3], the pKa worked out at 6.04. In data set [4], the “Editing Mean % Indel” value worked out at 34.48%. Further, in data set [5], the “Number mean (nm)” value came to 74 nm, the PDI is 0 and the “Z-avg (nm)” value was 90 nm.
